{"source": "paper PMC5617480", "about": "(Oncotarget, 2017)", "key": {"hTERT and c-myc": {"tested_on": "hTERT and c-myc", "assay": "Western blot and RT-PCR of hTERT and c-myc in BEL-7404 cells", "assay_type": "cell-based, human", "conditions": "BEL-7404, 10 μM, 24 h, compared to complexes 4 and 5", "method": "To further investigate the mechanism(s) how chiral platinum(II) complexes regulate telomerase activity, two genes (hTERT and c-myc) critically associated with telomerase activation were investigated. BEL-7404 cells were treated with chiral platinum(II) complexes 4–6 at 10 μM for 24 h, and then western blot and RT-PCR were performed to exam the expression of hTERT and c-myc at mRNA and protein levels. […] We further generated a GFP reporter system linked with c-myc or hTRET promotor which bears G4 DNA sequence. The reporter plasmids were transfected into BEL-7404 cells, and then the cells were treated with 10 μM chiral platinum(II) complexes for 24 h.\nApoptosis analysis c-myc antibody, or anti-β-actin primary antibody and the Apoptosis was detected by flow cytometric analysis corresponding secondary antibody were used to detect of annexin V staining. […] Then, cells were incubated with annexin V-FITC and PI for 1.0 h at Staining for SA-β-Gal activity was carried out room temperature in the dark and immediately analyzed according to Moore and Chen reports. […] The data are presented as biparametric After the long-term incubation with complexes 4–6, the dot plots showing PI red fluorescence vs annexin V-FITC growth medium was aspirated and the BEL-7404 cells green fluorescence. were fixed in 2% formaldehyde/0.2% glutaraldehyde for 15.0 min at room temperature. […]"}, "mice": {"tested_on": "mice", "assay": "In vivo toxicity of multiple doses", "conditions": "monitored another week", "method": "We then assessed the in vivo toxicity of multiple doses of complex 6. The mice was treated with complex 6 at 7.8 mg/kg daily or per two day by iv injection up to 7 days, and then monitored for another week."}, "[1]": {"tested_on": "TRF1, mutp53, hTERT, TRF2, c-myc, and 53BP1", "assay": "Western blot in BEL-7404 xenograft models", "assay_type": "in vivo, BALB/c nude mice", "conditions": "8 mg/kg and 4 mg/kg", "method": "(E–H) In vivo tumor growth inhibition activity of complex 6 (4.0, 8.0 mg/kg/d) treated of BEL-7402 model with 4.0 and 8.0 mg/kg/d, comparing with cisplatin (2 mg/kg/2 days). (A) and (E). Changes in tumor volume between treatment groups (including complex 6 (4.0, 8.0 mg/kg/d), 5-FU (20 mg/kg/2 days) or cisplatin (2 mg/kg/2 days)) and vehicle (saline) group of BEL-7404 tumor-bearing mice and BEL-7402 tumor-bearing mice. Data of tumor growth were tracked by the mean tumor volume (mm^3) ± SD (n = 6) and calculated as percent TGI (tumor growth inhibition, %) values. (B and F) Relative body weight change by considering the body weight at the start of the treated group as 100%, the percent weight loss or gain was calculated on subsequent days of treatment. (C) and (G) Tumor weight between treatment groups and vehicle (saline) group of BEL-7404 tumor-bearing mice and BEL-7402 tumor-bearing mice. […] (I) The expression protein level of TRF1, mutp53, hTERT, TRF2, c-myc, and 53BP1 were analyzed by western blot in BEL-7404 xenograft models treated with 8 mg/kg and 4 mg/kg complex 6, and 20 mg/kg 5-FU, respectively. (J) The whole-BEL-7404 xenograft model extracts were prepared and analyzed by Western blot analysis using antibodies against TRF1, mutp53, hTERT, TRF2, c-myc, and 53BP1. […] Western blotting bands from three independent measurements were quantified with Image J. in (I). […]"}}, "data": [{"substance": "cis-[PtCl2(S-(–)-FOA)] [complex 6]", "values": [{"measurement": "expression of hTERT and c-myc at mRNA and protein levels", "setting": "hTERT and c-myc", "result": "significantly attenuate"}, {"measurement": "safety of multiple doses", "setting": "mice; 7.8 mg/kg daily iv up to 7 days", "result": "safe for mice"}, {"measurement": "body weight change", "setting": "mice; 7.8 mg/kg daily or per two day iv up to 7 days", "result": "Moderate body weight increase"}, {"measurement": "expression of mutp53, c-myc, and hTERT", "setting": "[1]", "result": "down-regulated"}, {"measurement": "protein expression of TRF1, TRF2, and 53BP1", "setting": "[1]", "result": "significantly up-regulated"}]}]}
